Results published in ChEMBL document CHEMBL4507281, “Data for DCP probe BI-4394” (2021).

Columns and labels:
Conditions in all cases: Compound concentration 10.0 uM
[1] = target: Proto-oncogene tyrosine-protein kinase receptor Ret (Homo sapiens) (UniProt P07949)
[2] = target: Insulin receptor (Homo sapiens) (UniProt P06213)
[3] = target: Mitogen-activated protein kinase kinase kinase 9 (Homo sapiens) (UniProt P80192)
[4] = target: Fibroblast growth factor receptor 1 (Homo sapiens) (UniProt P11362)
[5] = target: Receptor tyrosine-protein kinase erbB-2 (Homo sapiens) (UniProt P04626)
[6] = target: T1, Interleukin-1 receptor-associated kinase 4 (Homo sapiens) (UniProt Q9NWZ3)
T1 sequence (whole entry): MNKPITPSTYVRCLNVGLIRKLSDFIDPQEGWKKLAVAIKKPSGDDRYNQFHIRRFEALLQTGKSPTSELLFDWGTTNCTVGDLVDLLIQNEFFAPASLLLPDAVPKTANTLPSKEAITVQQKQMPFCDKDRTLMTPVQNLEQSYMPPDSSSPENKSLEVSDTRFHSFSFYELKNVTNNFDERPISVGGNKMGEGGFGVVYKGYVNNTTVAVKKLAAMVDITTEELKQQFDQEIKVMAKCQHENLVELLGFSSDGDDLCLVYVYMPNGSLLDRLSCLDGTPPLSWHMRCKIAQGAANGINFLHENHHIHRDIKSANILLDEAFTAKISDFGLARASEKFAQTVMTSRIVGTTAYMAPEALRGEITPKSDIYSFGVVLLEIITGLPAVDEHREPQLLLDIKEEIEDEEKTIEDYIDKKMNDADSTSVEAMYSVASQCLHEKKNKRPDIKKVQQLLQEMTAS

[7] = target: T2, Activin receptor type-1B (Homo sapiens) (UniProt P36896)
T2 sequence (whole entry): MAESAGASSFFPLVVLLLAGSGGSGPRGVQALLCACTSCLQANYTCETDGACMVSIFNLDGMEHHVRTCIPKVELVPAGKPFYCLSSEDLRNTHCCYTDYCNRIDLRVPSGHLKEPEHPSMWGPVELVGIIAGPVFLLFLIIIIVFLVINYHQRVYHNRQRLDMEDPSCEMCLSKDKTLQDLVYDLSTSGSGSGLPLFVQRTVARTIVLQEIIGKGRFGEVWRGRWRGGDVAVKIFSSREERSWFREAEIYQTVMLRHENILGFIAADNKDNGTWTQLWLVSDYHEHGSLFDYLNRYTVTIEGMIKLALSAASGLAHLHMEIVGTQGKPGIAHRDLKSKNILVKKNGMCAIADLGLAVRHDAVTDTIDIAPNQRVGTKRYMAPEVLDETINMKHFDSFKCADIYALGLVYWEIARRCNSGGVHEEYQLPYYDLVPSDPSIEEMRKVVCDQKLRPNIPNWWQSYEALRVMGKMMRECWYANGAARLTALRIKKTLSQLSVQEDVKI

[8] = target: D(1A) dopamine receptor (Homo sapiens) (UniProt P21728)
[9] = target: RAC-alpha serine/threonine-protein kinase (Homo sapiens) (UniProt P31749)
[10] = target: T3, Aurora kinase A (Homo sapiens) (UniProt O14965)
T3 sequence (whole entry): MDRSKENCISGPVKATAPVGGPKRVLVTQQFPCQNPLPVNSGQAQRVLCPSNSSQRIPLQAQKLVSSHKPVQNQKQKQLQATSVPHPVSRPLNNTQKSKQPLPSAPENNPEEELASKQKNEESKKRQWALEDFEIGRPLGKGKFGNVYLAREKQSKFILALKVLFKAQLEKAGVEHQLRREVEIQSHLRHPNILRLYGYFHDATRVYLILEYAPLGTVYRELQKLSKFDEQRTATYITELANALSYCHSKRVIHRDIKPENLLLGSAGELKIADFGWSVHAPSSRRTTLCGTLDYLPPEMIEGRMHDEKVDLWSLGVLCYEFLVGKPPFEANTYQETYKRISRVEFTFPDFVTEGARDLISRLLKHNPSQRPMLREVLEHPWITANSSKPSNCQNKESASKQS

[11] = target: PI3-kinase p110-alpha/p85-alpha (Homo sapiens) (UniProt P27986+P42336)
[12] = target: Sodium-dependent dopamine transporter (Homo sapiens) (UniProt Q01959)
[13] = target: Cyclin-dependent kinase 1/cyclin B (Homo sapiens) (UniProt P06493+P14635+Q8WWL7+O95067)

Mitogen-activated protein kinase kinase kinase 9 (Homo sapiens), sequence (P80192 whole entry, looked up): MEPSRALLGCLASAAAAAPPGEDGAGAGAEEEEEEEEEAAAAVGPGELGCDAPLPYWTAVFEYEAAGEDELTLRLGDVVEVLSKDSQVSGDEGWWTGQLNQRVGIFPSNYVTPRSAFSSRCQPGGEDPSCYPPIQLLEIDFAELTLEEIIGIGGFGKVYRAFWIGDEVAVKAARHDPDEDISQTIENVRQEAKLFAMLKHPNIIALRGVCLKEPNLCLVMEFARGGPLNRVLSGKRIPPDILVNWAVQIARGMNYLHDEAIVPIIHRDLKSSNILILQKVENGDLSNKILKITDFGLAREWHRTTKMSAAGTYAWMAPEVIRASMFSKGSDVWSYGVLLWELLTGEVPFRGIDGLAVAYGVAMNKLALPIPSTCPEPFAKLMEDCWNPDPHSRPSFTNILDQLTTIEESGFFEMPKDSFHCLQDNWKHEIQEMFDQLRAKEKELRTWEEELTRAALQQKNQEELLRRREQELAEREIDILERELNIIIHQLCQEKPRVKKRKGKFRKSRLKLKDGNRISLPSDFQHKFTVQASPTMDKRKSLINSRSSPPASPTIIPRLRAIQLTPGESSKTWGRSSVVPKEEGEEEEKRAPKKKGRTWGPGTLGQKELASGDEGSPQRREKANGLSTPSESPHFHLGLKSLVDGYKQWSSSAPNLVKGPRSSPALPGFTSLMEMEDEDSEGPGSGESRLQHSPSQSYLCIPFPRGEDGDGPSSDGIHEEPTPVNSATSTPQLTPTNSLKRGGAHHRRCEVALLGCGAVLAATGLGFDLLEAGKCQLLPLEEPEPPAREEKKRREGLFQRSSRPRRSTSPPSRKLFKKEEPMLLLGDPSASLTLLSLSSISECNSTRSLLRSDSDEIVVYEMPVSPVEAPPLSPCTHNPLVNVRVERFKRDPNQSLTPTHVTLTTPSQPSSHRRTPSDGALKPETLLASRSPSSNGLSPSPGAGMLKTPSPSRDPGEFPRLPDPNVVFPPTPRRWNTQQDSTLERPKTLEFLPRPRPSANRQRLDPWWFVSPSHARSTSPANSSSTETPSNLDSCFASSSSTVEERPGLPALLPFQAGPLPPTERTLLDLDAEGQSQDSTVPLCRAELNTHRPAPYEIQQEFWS
D(1A) dopamine receptor (Homo sapiens), sequence (P21728 whole entry): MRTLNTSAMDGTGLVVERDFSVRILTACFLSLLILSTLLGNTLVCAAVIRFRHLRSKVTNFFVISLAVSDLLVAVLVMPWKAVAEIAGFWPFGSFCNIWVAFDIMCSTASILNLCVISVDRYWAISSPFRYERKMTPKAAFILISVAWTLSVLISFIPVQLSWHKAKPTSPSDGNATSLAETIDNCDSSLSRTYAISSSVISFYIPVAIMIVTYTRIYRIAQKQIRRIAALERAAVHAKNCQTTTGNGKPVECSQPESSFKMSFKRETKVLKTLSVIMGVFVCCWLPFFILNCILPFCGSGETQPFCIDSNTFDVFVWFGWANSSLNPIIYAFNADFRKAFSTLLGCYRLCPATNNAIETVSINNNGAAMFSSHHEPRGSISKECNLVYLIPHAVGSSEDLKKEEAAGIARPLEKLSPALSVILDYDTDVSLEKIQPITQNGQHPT
Insulin receptor (Homo sapiens), sequence (P06213 28-758 limits assumed): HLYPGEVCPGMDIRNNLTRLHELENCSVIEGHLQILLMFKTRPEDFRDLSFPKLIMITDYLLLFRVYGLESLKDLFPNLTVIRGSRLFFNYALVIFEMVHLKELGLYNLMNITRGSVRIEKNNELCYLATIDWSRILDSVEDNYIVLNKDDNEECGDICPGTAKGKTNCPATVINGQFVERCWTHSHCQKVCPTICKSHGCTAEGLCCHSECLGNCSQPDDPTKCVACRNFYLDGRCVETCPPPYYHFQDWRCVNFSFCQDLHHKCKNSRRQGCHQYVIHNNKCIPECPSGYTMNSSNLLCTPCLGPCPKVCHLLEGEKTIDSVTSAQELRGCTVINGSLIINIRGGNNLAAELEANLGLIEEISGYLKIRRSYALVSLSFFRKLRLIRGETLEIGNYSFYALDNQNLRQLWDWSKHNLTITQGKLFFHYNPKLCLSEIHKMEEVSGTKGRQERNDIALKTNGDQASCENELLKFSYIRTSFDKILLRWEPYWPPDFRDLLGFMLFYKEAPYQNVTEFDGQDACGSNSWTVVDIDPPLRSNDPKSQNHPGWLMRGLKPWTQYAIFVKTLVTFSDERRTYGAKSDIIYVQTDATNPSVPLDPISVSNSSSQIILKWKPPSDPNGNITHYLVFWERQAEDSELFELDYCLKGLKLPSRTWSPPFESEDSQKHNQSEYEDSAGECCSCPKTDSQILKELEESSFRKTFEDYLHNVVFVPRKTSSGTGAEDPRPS
Insulin receptor (Homo sapiens), sequence (P06213 763-1382 limits assumed): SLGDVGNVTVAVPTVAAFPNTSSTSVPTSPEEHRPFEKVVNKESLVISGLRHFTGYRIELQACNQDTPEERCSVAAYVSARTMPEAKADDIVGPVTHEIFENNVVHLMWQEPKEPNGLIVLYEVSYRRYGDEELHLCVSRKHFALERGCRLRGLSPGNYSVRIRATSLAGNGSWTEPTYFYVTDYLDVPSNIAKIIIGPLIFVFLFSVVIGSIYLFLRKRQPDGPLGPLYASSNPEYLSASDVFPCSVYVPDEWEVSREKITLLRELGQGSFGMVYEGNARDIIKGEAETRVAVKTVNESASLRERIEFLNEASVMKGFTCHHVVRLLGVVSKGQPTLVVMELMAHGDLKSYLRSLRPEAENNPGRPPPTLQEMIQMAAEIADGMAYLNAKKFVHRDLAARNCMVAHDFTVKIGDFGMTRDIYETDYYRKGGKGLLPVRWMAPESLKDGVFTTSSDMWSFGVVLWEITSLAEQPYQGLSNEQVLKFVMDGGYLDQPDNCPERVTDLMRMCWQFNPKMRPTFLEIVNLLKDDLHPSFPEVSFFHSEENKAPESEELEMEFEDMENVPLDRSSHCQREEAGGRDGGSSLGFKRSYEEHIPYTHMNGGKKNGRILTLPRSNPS
Proto-oncogene tyrosine-protein kinase receptor Ret (Homo sapiens), sequence (P07949 whole entry): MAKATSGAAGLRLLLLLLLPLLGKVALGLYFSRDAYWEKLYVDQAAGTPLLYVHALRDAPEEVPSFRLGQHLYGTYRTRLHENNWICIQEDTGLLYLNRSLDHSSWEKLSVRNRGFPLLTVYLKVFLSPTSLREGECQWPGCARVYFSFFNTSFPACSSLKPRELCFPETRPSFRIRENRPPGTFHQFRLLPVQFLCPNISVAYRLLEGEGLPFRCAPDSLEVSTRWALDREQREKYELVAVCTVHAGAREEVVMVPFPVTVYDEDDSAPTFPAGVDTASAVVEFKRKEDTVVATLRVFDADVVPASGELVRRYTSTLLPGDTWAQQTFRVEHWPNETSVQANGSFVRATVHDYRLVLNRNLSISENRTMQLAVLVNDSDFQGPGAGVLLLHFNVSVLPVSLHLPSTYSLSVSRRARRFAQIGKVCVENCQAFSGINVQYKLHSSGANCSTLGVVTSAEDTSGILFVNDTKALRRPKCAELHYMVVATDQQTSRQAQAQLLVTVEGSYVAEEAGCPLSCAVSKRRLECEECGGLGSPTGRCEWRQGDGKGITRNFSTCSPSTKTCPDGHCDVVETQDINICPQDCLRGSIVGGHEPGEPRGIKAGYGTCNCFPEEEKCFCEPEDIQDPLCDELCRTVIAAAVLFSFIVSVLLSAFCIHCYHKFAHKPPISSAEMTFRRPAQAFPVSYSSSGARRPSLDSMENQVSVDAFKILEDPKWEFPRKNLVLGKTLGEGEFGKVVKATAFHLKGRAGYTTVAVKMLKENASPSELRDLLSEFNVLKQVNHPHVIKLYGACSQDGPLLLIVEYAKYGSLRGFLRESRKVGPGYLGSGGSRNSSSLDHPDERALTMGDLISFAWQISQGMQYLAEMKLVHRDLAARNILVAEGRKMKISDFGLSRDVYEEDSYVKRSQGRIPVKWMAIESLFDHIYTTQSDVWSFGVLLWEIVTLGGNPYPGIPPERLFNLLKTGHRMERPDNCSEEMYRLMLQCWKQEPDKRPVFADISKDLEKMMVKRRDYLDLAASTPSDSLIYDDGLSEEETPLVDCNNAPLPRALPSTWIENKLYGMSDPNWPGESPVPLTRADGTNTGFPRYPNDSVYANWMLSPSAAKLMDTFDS
RAC-alpha serine/threonine-protein kinase (Homo sapiens), sequence (P31749 whole entry): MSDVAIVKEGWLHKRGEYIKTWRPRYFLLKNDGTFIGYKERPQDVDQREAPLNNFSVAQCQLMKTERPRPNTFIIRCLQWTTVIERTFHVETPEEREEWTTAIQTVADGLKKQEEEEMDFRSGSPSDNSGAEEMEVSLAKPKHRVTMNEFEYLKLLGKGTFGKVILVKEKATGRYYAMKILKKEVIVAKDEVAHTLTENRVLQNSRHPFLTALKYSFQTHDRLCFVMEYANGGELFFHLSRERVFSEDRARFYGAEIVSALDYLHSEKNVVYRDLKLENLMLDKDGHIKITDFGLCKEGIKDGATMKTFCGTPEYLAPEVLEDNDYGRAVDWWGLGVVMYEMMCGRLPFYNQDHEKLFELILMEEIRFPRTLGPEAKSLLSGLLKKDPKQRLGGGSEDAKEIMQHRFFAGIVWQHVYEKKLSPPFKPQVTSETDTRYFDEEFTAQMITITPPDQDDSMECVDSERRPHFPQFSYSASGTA

CCOC(=O)c1cc2cc(-c3cc(C(=O)NCc4ccc(C(=O)O)cc4)nn3C)ccc2[nH]1 [BI 4394]
active: residual activity [9] 24% | residual activity [10] -1%
inactive: residual activity [1] 64% | residual activity [2] 98% | residual activity [3] 93% | residual activity [4] 94% | residual activity [5] 87% | residual activity [6] 121% | residual activity [7] 100% | inhibition [8] -5.02% | residual activity [11] 133% | inhibition [12] 2.26% | residual activity [13] 88%
